Entries after “also recorded” stand apart in the source; their conditions may differ.
Experiments:
Type in all cases: cell-based
feline calicivirus (FCV) = assay: Virucidal effect in presence of organic material (BSA); settings: 1,000 µg/ml
Description: • Virus: using feline calicivirus (FCV) as a replacement for norovirus • Used medicine and concentration: 1,000 µg/ml of sodium hypochlorite or coccomyxa sp. KJ strain MGDG preparation • Organic material: using BSA (albumin) 5%
• (1) Feline calicivirus (FCV) was prepared in 2×10^5 PFU/ml. • (2) An MGDG preparation or sodium hypochlorite is prepared at a concentration four times the final assay concentration ([…]). • (3) Bovine serum albumin (BSA) is prepared as an organic material at a concentration four times the final concentration (5%). • (4) Virus fluid: the MGDG preparation or sodium hypochlorite and BSA are mixed at a ratio of 2 : 1 : 1. A sample prepared by adding PBS instead of the MGDG preparation or sodium hypochlorite was used as a control. • (5) After being left at room temperature for 1 minute, 10 minutes, and 60 minutes, 100-fold dilution with PBS is performed. The CRFK cells cultured in a monolayer fashion are added in an amount of 100 µl/culture dish to a 35 mm culture dish, and an infection treatment is performed at room temperature for 1 hour. • (6) A 1% SeaPlaque Agarose-added MEM culture medium is overlaid. • (7) After 2 days, the appeared plaque is immobilized and stained with a crystal violet solution. • (8) The number of plaques is counted under a microscope.

Influenza A virus (IFV) = assay: Virucidal activity of each MGDG fraction, influenza virus; settings: 50 µg/ml, 37°C, 60 minutes; MDCK cell
[1] = tested on: Herpes simplex virus type 2 (HSV-2); assay: Virucidal activity of each MGDG fraction, herpes simplex virus type 2; settings: 50 µg/ml, 37°C, 60 minutes, Vero cell
Description: (1) A coccomyxa sp. KJ strain-derived MGDG preparation was subjected to HPLC, and each peak was separated, thereby obtaining five types of MGDG refined products (MGDG1, MGDG2, MGDG3, MGDG4, and MGDG5). Furthermore, the MGDG preparation before separation (containing MGDG1 to MGDG5) was prepared as a mix product. (2) Each sample was mixed with respect to each virus fluid (2×10^5 PFU/ml) so that the final concentration became 50 µg/ml, and the resultant product was left to stand still at 37°C for 60 minutes.
(3) The mixed liquid of (2) is diluted in the MEM culture medium without foetal bovine serum, a culture medium for plaque assay is then overlaid, and culturing is performed at 37°C for 2 to 3 days. (4) After checking appearance of plaques, the cells were immobilized and stained with a neutral red solution, and the number of plaques was measured under a microscope. The virus survival rate of each sample was calculated based on the appearance number of virus appearing in the case of not adding the sample (100%). The virucidal performance of each sample was evaluated from the virus survival rate.

| Compound | inactivation effect in the presence of the organic material, change versus its absence (feline calicivirus (FCV); 5% BSA) | rate of virus inactivation (feline calicivirus (FCV); organic material (BSA) did not exist, one minute) [%] | virucidal (inactivation) activity (virus survival rate) (Influenza A virus (IFV)) | virucidal (inactivation) activity (virus survival rate) [1] | virucidal (inactivation) activity (virus survival rate) ([1]; listed as fifth peak of the KJ strain MGDG preparation) |
| --- | --- | --- | --- | --- | --- |
| OCl [sodium hypochlorite] | significantly reduced | 100 |  |  |  |
| monogalactosyldiacylglycerol in which a constituent fatty acid is C18:3 and C18:2 [MGDG5] |  |  | significant inactivation effect; also recorded: high virucidal activity | significant inactivation effect | high virucidal activity |
